# According to paper PMC9005681, “Use of AD Informer Set compounds to explore validity of novel targets in Alzheimer's disease pathology” (Alzheimer's & Dementia : Translational Research & Clinical …, 2022):
# “And” between values parts separate entries of the source, which are not always exact repeats. Equal entries are not always repeated.
# Columns and labels:
# Assay in all cases: PDSP GPCR panel primary binding assays at 10 μM
# [1] = molecular target: T1, cloned human or rodent CNS receptors, channels, and transporters (PDSP panel) (Rattus norvegicus, UniProt P16257); details: Receptor PBR, primary assay, 10 μM
# T1 construct: expressed in transfected cells
# Procedure, shortened: (§1)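 PDSP panel of 46–47 cloned human or rodent CNS receptors, channels and transporters; radioligand displacement by compound at 10 μM, in quadruplicate. Where average displacement exceeded 50%, secondary binding followed as 11-point dose-response in triplicate (none for H3, PBR or GABAA).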
# [2] = molecular target: T2, cloned human or rodent CNS receptors, channels, and transporters (PDSP panel) (Homo sapiens, UniProt P28223); details: Receptor 5-HT2A, primary assay, 10 μM
# T2 construct: expressed in transfected cells
# Procedure, shortened: as §1
# [3] = test system: cloned human or rodent CNS receptors, channels, and transporters (PDSP panel); details: 10 μM; for Inhibition 1 / Inhibition 2 / Inhibition 3 / Inhibition 4 / Mean %: primary assay; for Mean %: mean of Inhibition 1-4
# Procedure, shortened: as §1
# [4] = molecular target: T3, cloned human or rodent CNS receptors, channels, and transporters (PDSP panel) (Homo sapiens, UniProt P14416); details: Receptor D2, primary assay, 10 μM
# T3 construct: expressed in transfected cells
# Procedure, shortened: as §1
# [5] = molecular target: T4, cloned human or rodent CNS receptors, channels, and transporters (PDSP panel) (Homo sapiens, UniProt P21918); details: Receptor D5, primary assay, 10 μM
# T4 construct: expressed in transfected cells
# Procedure, shortened: as §1
# [6] = molecular target: T5, cloned human or rodent CNS receptors, channels, and transporters (PDSP panel) (Homo sapiens, UniProt P11229); details: Receptor M1, primary assay, 10 μM
# T5 construct: expressed in transfected cells
# T5 sequence (P11229 1-460): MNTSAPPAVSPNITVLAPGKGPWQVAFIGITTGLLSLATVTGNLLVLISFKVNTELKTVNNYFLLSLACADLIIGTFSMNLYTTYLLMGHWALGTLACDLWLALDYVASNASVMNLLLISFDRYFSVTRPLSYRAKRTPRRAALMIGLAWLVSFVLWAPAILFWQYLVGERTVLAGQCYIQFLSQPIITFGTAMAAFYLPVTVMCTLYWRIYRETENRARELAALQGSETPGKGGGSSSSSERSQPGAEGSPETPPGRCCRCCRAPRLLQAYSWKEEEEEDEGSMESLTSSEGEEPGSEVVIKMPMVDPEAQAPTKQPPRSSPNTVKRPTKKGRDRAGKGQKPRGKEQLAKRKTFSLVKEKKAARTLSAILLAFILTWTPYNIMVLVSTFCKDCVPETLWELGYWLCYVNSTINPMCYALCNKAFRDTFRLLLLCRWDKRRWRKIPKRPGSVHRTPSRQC
# Procedure, shortened: as §1
# [7] = molecular target: T6, cloned human or rodent CNS receptors, channels, and transporters (PDSP panel) (Homo sapiens, UniProt P41145); details: Receptor KOR, primary assay, 10 μM
# T6 construct: expressed in transfected cells
# Procedure, shortened: as §1
# [8] = molecular target: T7, cloned human or rodent CNS receptors, channels, and transporters (PDSP panel) (Homo sapiens, UniProt P35367); details: Receptor H1, primary assay, 10 μM
# T7 construct: expressed in transfected cells
# Procedure, shortened: as §1
# [9] = molecular target: T8, cloned human or rodent CNS receptors, channels, and transporters (PDSP panel) (Homo sapiens, UniProt P34969); details: Receptor 5-HT7A, primary assay, 10 μM
# T8 construct: expressed in transfected cells
# Procedure, shortened: as §1
# [10] = molecular target: T9, cloned human or rodent CNS receptors, channels, and transporters (PDSP panel) (Homo sapiens, UniProt P21728); details: Receptor D1, primary assay, 10 μM
# T9 construct: expressed in transfected cells
# Procedure, shortened: as §1
# T2 sequence (P28223 whole entry): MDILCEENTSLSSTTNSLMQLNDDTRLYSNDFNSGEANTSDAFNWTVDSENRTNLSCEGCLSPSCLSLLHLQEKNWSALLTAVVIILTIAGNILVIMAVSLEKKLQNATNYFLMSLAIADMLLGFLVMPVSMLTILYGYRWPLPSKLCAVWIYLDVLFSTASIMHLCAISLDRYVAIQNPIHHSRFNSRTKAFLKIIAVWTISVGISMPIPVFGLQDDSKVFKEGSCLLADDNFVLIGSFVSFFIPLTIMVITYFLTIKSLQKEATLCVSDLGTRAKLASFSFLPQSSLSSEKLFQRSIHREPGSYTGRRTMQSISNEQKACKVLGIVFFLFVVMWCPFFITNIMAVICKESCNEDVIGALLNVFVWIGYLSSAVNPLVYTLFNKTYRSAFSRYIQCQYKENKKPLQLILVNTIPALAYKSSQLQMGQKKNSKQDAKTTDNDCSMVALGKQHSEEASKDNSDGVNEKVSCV
# T7 sequence (P35367 whole entry): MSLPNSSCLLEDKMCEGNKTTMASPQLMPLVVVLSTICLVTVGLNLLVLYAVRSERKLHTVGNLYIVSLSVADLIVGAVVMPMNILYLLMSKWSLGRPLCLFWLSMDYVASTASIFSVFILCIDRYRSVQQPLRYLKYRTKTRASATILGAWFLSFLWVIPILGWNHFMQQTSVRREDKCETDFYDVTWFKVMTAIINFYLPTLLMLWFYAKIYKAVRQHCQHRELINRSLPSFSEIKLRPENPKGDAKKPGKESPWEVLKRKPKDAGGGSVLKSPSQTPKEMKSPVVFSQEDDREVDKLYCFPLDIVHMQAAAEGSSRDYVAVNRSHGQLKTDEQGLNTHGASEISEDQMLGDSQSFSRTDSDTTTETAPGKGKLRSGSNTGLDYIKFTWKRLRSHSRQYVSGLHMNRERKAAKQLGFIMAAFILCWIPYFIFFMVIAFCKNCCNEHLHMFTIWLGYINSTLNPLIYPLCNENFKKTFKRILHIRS
# T8 sequence (P34969 whole entry): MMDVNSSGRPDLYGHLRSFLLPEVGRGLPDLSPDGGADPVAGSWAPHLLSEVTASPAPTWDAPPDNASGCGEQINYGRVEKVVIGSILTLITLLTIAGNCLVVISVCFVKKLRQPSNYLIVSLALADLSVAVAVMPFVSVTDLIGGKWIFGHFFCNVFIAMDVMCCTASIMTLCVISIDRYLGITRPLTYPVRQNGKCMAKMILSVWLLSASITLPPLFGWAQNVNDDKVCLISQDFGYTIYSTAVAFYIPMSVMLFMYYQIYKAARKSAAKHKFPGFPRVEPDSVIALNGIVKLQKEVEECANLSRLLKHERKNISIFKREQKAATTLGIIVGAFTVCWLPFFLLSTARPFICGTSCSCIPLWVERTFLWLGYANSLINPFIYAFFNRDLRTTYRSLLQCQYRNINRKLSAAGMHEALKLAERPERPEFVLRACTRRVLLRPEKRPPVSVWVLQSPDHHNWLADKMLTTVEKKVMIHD
# T4 sequence (P21918 whole entry): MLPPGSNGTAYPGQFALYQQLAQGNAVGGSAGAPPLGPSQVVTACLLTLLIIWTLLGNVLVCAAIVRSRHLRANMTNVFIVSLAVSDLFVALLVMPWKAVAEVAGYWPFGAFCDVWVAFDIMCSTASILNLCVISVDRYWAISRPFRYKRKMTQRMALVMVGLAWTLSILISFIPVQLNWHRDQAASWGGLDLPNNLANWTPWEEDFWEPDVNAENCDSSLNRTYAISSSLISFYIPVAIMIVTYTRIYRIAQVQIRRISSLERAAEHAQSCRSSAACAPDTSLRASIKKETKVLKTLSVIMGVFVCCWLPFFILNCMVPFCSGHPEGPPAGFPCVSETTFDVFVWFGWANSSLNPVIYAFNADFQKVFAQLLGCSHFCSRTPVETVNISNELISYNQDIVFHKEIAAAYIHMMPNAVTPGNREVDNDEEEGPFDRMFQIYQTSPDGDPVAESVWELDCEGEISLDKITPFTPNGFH
# T6 sequence (P41145 whole entry): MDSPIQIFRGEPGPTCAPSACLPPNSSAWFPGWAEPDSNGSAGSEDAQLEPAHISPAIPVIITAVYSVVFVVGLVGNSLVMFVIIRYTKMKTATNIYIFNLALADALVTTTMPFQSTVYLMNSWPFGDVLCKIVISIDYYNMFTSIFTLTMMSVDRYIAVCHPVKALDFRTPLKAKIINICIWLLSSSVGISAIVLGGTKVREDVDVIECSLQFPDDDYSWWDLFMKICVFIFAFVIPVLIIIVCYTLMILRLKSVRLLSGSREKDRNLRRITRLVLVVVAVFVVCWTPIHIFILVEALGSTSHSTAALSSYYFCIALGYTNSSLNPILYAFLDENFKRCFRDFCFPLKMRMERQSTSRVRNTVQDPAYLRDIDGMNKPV
# T3 sequence (P14416 whole entry): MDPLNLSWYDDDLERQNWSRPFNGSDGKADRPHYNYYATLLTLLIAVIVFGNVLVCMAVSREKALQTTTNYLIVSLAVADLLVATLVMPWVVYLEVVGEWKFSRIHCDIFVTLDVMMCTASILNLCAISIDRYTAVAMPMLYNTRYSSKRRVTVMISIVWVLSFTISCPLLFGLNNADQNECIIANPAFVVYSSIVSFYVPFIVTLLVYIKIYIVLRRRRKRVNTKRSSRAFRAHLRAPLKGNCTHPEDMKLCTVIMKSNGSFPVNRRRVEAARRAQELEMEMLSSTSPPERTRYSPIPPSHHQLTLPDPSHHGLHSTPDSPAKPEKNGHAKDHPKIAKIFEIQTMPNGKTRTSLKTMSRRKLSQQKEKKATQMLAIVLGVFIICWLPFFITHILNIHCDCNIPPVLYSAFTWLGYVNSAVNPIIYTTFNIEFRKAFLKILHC
# T9 sequence (P21728 whole entry): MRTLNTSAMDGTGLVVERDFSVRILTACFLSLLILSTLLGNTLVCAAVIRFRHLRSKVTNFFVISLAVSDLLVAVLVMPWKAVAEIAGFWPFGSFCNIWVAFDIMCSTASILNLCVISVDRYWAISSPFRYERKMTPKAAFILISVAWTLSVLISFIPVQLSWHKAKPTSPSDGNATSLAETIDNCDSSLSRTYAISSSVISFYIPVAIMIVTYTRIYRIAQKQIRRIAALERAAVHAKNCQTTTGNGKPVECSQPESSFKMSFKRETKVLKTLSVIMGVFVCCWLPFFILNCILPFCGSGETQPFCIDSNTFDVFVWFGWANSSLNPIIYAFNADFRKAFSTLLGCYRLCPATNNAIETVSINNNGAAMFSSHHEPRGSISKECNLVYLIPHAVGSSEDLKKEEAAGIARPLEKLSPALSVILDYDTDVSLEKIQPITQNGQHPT
compound,measurement,setting,value
"Cl.NC(=O)c1cnc(N[C@@H]2CCCC[C@@H]2N)nc1Nc1cccc(-n2nccn2)c1 [UNC10302682A, P505-15 (PRT06207 HCl)]",Inhibition 1,[1],32.16% and 27.63%
same,Inhibition 2,[1],2.97% and 6.1%
same,Inhibition 4,[1],18.35% and 12.24%
same,Mean %,[1]; mean of Inhibition 1-4,14.68% and 16.23%
same,Inhibition 1,[2],13.95%
same,Inhibition 2,[2],2.61%
same,Inhibition 3,[2],8.53%
same,Inhibition 4,[2],0.63%
same,Mean %,[2]; mean of Inhibition 1-4,6.43%
same,Affinity for receptors in primary assays,[3]; 46-47 primary binding assays,possessed affinity for the most receptors in primary assays
same,Inhibition 1,[3]; Receptor Alpha1A,22.91%
same,Inhibition 2,[3]; Receptor Alpha1A,19.17%
same,Inhibition 3,[3]; Receptor Alpha1A,28.52%
same,Inhibition 4,[3]; Receptor Alpha1A,1.22%
same,Mean %,[3]; Receptor Alpha1A,17.96%
same,Inhibition 1,[3]; Receptor Alpha2A,21.38%
same,Inhibition 2,[3]; Receptor Alpha2A,23.31%
same,Inhibition 3,[3]; Receptor Alpha2A,19.6%
same,Inhibition 4,[3]; Receptor Alpha2A,16.75%
same,Mean %,[3]; Receptor Alpha2A,20.26%
same,Inhibition 1,[3]; Receptor Alpha2C,22.11%
same,Inhibition 2,[3]; Receptor Alpha2C,17.82%
same,Inhibition 3,[3]; Receptor Alpha2C,14.79%
same,Inhibition 4,[3]; Receptor Alpha2C,26.53%
same,Mean %,[3]; Receptor Alpha2C,20.31%
same,Inhibition 1,[3]; Receptor BZP Rat Brain Site,6.42%
same,Inhibition 2,[3]; Receptor BZP Rat Brain Site,10.02%
same,Inhibition 3,[3]; Receptor BZP Rat Brain Site,1.11%
same,Inhibition 4,[3]; Receptor BZP Rat Brain Site,13.06%
same,Mean %,[3]; Receptor BZP Rat Brain Site,7.65%
same,Inhibition 1,[3]; Receptor DOR,-18.41%
same,Inhibition 2,[3]; Receptor DOR,-4.86%
same,Inhibition 3,[3]; Receptor DOR,0.02%
same,Inhibition 4,[3]; Receptor DOR,6.53%
same,Mean %,[3]; Receptor DOR,-4.18%
same,Inhibition 1,[3]; Receptor H3,29.95%
same,Inhibition 2,[3]; Receptor H3,45.1%
same,Inhibition 3,[3]; Receptor H3,59.09%
same,Inhibition 4,[3]; Receptor H3,65.79%
same,Mean %,[3]; Receptor H3,49.98%
same,Inhibition 1,[3]; Receptor H4,11.34%
same,Inhibition 2,[3]; Receptor H4,13.02%
same,Inhibition 3,[3]; Receptor H4,28.62%
same,Inhibition 4,[3]; Receptor H4,77.11%
same,Mean %,[3]; Receptor H4,32.52%
same,Inhibition 1,[3]; Receptor Sigma 1,15.02%
same,Inhibition 2,[3]; Receptor Sigma 1,35.34%
same,Inhibition 3,[3]; Receptor Sigma 1,14.82%
same,Inhibition 4,[3]; Receptor Sigma 1,27.31%
same,Mean %,[3]; Receptor Sigma 1,23.12%
same,Inhibition 1,[3]; Receptor Sigma 2,57.01%
same,Inhibition 2,[3]; Receptor Sigma 2,56.94%
same,Inhibition 3,[3]; Receptor Sigma 2,67.96%
same,Inhibition 4,[3]; Receptor Sigma 2,81.11%
same,Mean %,[3]; Receptor Sigma 2,65.76%
same,Inhibition 1,[4],17.73%
same,Inhibition 2,[4],-4.34%
same,Inhibition 3,[4],3.54%
same,Inhibition 4,[4],5.97%
same,Mean %,[4]; mean of Inhibition 1-4,5.73%
same,Inhibition 1,[5],21.97%
same,Inhibition 2,[5],17.01%
same,Inhibition 3,[5],7.24%
same,Inhibition 4,[5],14.53%
same,Mean %,[5]; mean of Inhibition 1-4,15.19%
same,Inhibition 1,[6],35.84%
same,Inhibition 2,[6],24.74%
same,Inhibition 3,[6],0.85%
same,Inhibition 4,[6],16.46%
same,Mean %,[6]; mean of Inhibition 1-4,19.47%
same,Inhibition 1,[7],-6.83%
same,Inhibition 2,[7],-18.02%
same,Inhibition 3,[7],-46.91%
same,Inhibition 4,[7],-15.34%
same,Mean %,[7]; mean of Inhibition 1-4,-21.78%
same,Inhibition 1,[8],100.99%
same,Inhibition 2,[8],95.9%
same,Inhibition 3,[8],86.08%
same,Inhibition 4,[8],60.28%
same,Mean %,[8]; mean of Inhibition 1-4,85.81%
same,Inhibition 1,[9],33.86%
same,Inhibition 2,[9],20.22%
same,Inhibition 3,[9],54.31%
same,Inhibition 4,[9],52.91%
same,Mean %,[9]; mean of Inhibition 1-4,40.33%
same,Inhibition 1,[10],10.12%
same,Inhibition 2,[10],11.25%
same,Inhibition 3,[10],12.71%
same,Inhibition 4,[10],8.82%
same,Mean %,[10]; mean of Inhibition 1-4,10.73%
